Laboratory results from patent publication US5801162A, “Dermatan sulfate compositions and antithrombotic compositions containing same” (Seikagaku Kogyo Kabushiki Kaisha (Seikagaku Corporation), priority 1993, dated 1998).

How the values were obtained:
[1] = system: activation of plasminogen with single-chain t-PA (sc-tPA); conditions: s-2251
Description: (§1) Fifty microliters each of various concentration of DS (BIDS, CCDS) or chondroitin sulfate (control group), 25 μL of 1.6 μM plasminogen and 25 μL of 20 nM of single or two-chain t-PA, and 100 μL of 0.6 mM a synthetic substrate S-2251 (H-D-Val-L-Leu-L-Lys-p-nitroanilide·2HCl) were mixed and the absorbancy at 405 nm was determined every 2 minutes with an automatic microtiter plate reader. The reaction was carried out at 37° C. in a buffer composed of 60 mM TriS-HCl with Tween^RTM 80.
(§2) The initial rate of activation of plasminogen was calculated as follows; the slope of plots of, .LAMBDA.405, an absorbancy at 405 nm at time t to the square of time (Δ.LAMBDA.405 /Δt^2) was divided by 40,000 (Chibber, B. A. K., et al., Biochemistry, 1985, pp. 3429-3434). The stimulation rate was calculated from ratios to DS or chondroitin sulfate free conditions which was made the initial rate 1 (one).

[2] = system: activation of plasminogen with two-chain t-PA (tc-tPA); conditions: s-2251
Description: as §1, §2

chondroitin sulfate
stimulation rate of activation of plasminogen (ratio to DS or chondroitin sulfate free conditions) [1]: ≤ 2.5 fold | stimulation rate of activation of plasminogen (ratio to DS or chondroitin sulfate free conditions) [2]: ≤ 1.5 fold
